Converted amounts (≈) assume the structure as drawn. Where a SMILES comes first, the peptide text is derived from it.
Columns and labels:
[1] = system: Staphylococcus aureus; conditions: c-PLAI isolated from marine Pseudomonas sp.; cited from earlier work
Description: (§1) c-PLAI [cyclo(pro-leu-ala-ile)] is a cyclotetrapeptide that was isolated by Rungprom and co-workers in 2008 from marine Pseudomonas sp., which was associated with the Japanese seaweed Diginea sp.. All the amino acid residues of c-PLAI were reported to be L-configured. […] Later, c-PLAI was successfully synthesized using a convergent solution-phase method. ...

[2] = system: Escherichia coli; conditions: c-PLAI isolated from marine Pseudomonas sp.; cited from earlier work
Description: as §1

[3] = system: Vibrio anguillarum; conditions: c-PLAI isolated from marine Pseudomonas sp.; cited from earlier work
Description: as §1

[4] = system: Micrococcus luteus; conditions: c-PLAI isolated from marine Pseudomonas sp.; cited from earlier work
Description: as §1

[5] = system: Bacillus subtilis; conditions: c-PLAI isolated from marine Pseudomonas sp.; cited from earlier work
Description: as §1

[6] = system: Microsporum andouinii; conditions: synthetic product of solution-phase synthesis; strain not given; cited from earlier work
Description: as §1

[7] = system: S. aureus ATCC 6538; test: microbe, parasite or virus in culture; conditions: ATCC 6538, 18 h
Protocol: (§2) Tools and materials were sterilized in an autoclave for 15 min at 121°C. Bacterial culture was grown in agar media (Mueller Hinton agar) by picking some bacterial colony using an inoculating loop, followed by incubation at 37°C for 24 h. Bacterial culture was then suspended in liquid media (Mueller Hinton Broth). The suspended bacterial culture was then incubated at 37°C for 24 h and standardized equal to 0.5 Mc Farland (2 × 10^8 CFU ml^−1). The culture was diluted into the concentration of 5 × 10^5 CFU ml^−1.
(§3) Six tetrapeptides and six cyclotetrapeptides were dissolved in DMSO 2% with a concentration of 1 µg mL^−1. Each solution was dissolved gradually. Subsequently, 12 sample solutions, ciprofloxacin, nystatin, ketoconazole and DMSO 2% were incubated on a 96-well microplate at 37°C for 18 h. The result was interpreted using a spectrophotometer, with a wavelength of 600 nm. MIC was measured as the percentage of microbial inhibition and cell death.

[8] = system: B. cereus ATCC 11778; test: microbe, parasite or virus in culture; conditions: ATCC 11778, 18 h
Protocol: as §2, §3

[9] = system: K. pneumonia ATCC 2357; test: microbe, parasite or virus in culture; conditions: ATCC 2357, 18 h
Protocol: as §2, §3

[10] = system: E. coli ATCC 11229; test: microbe, parasite or virus in culture; conditions: ATCC 11229, 18 h
Protocol: as §2, §3

[11] = system: C. albicans ATCC 10231; conditions: ATCC 10231, 18 h
Protocol: (§4) Tools and materials were sterilized in an autoclave for 15 min at 121°C. Fungal culture was grown in agar media (Potato Dextrose agar) by picking some fungal colony using an inoculating loop, followed by incubation at 30°C for 24–48 h. Fungal culture was then suspended in liquid media (Potato Dextrose Broth). The suspended fungal culture was then incubated for 24–48 h at 30°C. The suspended fungal culture was then incubated at 30°C for 24 h and standardized equal to 0.5 Mc Farland (2 × 10^8 CFU ml^−1). The culture was diluted into the concentration of 5 × 10^5 CFU ml^−1.
as §3

[12] = system: T. mentagrophyte; test: microbe, parasite or virus in culture; conditions: 18 h
Protocol: as §4, §3

[13] = system: Pseudomonas aeruginosa; conditions: synthetic product of solution-phase synthesis; strain not given; cited from earlier work
Protocol: as §1, with “... || The antimicrobial properties of all linear and cyclic tetrapeptides were evaluated (table 3). […] The lack of information regarding the microbial strains used in the previous report led us to the assumption that the use of different strains in the assay could lead to a differen ...” for “...”

[14] = system: Klebsiella pneumoniae; conditions: synthetic product of solution-phase synthesis; strain not given; cited from earlier work
Protocol: as §1, with “... || The antimicrobial properties of all linear and cyclic tetrapeptides were evaluated (table 3). […] The lack of information regarding the microbial strains used in the previous report led us to the assumption that the use of different strains in the assay could lead to a differen ...” for “...”

[15] = system: Candida albicans; conditions: synthetic product of solution-phase synthesis; strain not given; cited from earlier work
Protocol: as §1, with “... || The antimicrobial properties of all linear and cyclic tetrapeptides were evaluated (table 3). […] The lack of information regarding the microbial strains used in the previous report led us to the assumption that the use of different strains in the assay could lead to a differen ...” for “...”

[16] = system: Trichophyton mentagrophytes; conditions: synthetic product of solution-phase synthesis; strain not given; cited from earlier work
Protocol: as §1, with “... || The antimicrobial properties of all linear and cyclic tetrapeptides were evaluated (table 3). […] The lack of information regarding the microbial strains used in the previous report led us to the assumption that the use of different strains in the assay could lead to a differen ...” for “...”

CC[C@H](C)[C@@H]1NC(=O)[C@H](C)NC(=O)[C@H](CC(C)C)NC(=O)[C@@H]2CCCN2C1=O [c-PLAI, cyclo(pro-leu-ala-ile)] (cyclo(PLAI))
antibacterial activity against Staphylococcus aureus [1]: inactive
antibacterial activity against Escherichia coli [2]: inactive
antibacterial activity against Vibrio anguillarum [3]: inactive
antibacterial activity against Micrococcus luteus [4]: inactive
antibacterial activity against Bacillus subtilis [5]: inactive
minimum inhibitory concentration (MIC) Microsporum andouinii [6]: 6 µg/mL (≈ 15.2 µM)
minimum inhibitory concentration (MIC) S. aureus ATCC 6538 [7]: >1000 µg/mL
minimum inhibitory concentration (MIC) B. cereus ATCC 11778 [8]: 125 µg/mL (≈ 317 µM)
minimum inhibitory concentration (MIC) K. pneumonia ATCC 2357 [9]: 500 µg/mL (≈ 1270 µM)
minimum inhibitory concentration (MIC) E. coli ATCC 11229 [10]: 250 µg/mL (≈ 634 µM)
minimum inhibitory concentration (MIC) C. albicans ATCC 10231 [11]: >1000 µg/mL
minimum inhibitory concentration (MIC) T. mentagrophyte [12]: 125 µg/mL (≈ 317 µM)
minimum inhibitory concentration (MIC) Pseudomonas aeruginosa [13]: 6 µg/mL (≈ 15.2 µM)
minimum inhibitory concentration (MIC) Klebsiella pneumoniae [14]: 6 µg/mL (≈ 15.2 µM)
minimum inhibitory concentration (MIC) Candida albicans [15]: 6 µg/mL (≈ 15.2 µM)
minimum inhibitory concentration (MIC) Trichophyton mentagrophytes [16]: 6 µg/mL (≈ 15.2 µM)
